According to the NIST ThermoML archive (doi:10.1021/je8008073):

Assay: wn = mass fraction of the nth substance listed
Conditions: Liquid; for mass density: Vibrating tube method; for viscosity: Falling or rolling sphere viscometry

CC(C)Cc1ccccc1 [(2-methylpropyl)benzene] + CCCCCCCCCCCC
Conditions	mass density [kg/m3]	viscosity [mPa·s]
293.15 K, 100 kPa, w2 = 0.5	795.4	–
293.15 K, 2000 kPa, w2 = 0.5	796.7	–
293.15 K, 4000 kPa, w2 = 0.5	798.1	–
293.15 K, 6000 kPa, w2 = 0.5	799.5	–
293.15 K, 8000 kPa, w2 = 0.5	801.1	–
293.15 K, 10000 kPa, w2 = 0.5	802.5	–
293.15 K, 12000 kPa, w2 = 0.5	803.7	–
293.15 K, 14000 kPa, w2 = 0.5	805	–
293.15 K, 16000 kPa, w2 = 0.5	806.3	–
293.15 K, 18000 kPa, w2 = 0.5	807.6	–
293.15 K, 20000 kPa, w2 = 0.5	808.9	–
295.65 K, 100 kPa, w2 = 0.5	793.6	–
295.65 K, 2000 kPa, w2 = 0.5	794.9	–
295.65 K, 4000 kPa, w2 = 0.5	796.3	–
295.65 K, 6000 kPa, w2 = 0.5	797.7	–
295.65 K, 8000 kPa, w2 = 0.5	799.1	–
295.65 K, 10000 kPa, w2 = 0.5	800.5	–
295.65 K, 12000 kPa, w2 = 0.5	801.8	–
295.65 K, 14000 kPa, w2 = 0.5	803.1	–
295.65 K, 16000 kPa, w2 = 0.5	804.3	–
295.65 K, 18000 kPa, w2 = 0.5	805.6	–
295.65 K, 20000 kPa, w2 = 0.5	806.8	–
298.15 K, 100 kPa, w1 = 0.48	789.5	–
298.15 K, 100 kPa, w1 = 0.49	790.4	–
298.15 K, 100 kPa, w1 = 0.5	791.7	–
298.15 K, 100 kPa, w1 = 0.51	792.7	–
298.15 K, 100 kPa, w1 = 0.52	793.6	–
298.15 K, 100 kPa, w2 = 0.5	791.7	1.09
298.15 K, 2000 kPa, w1 = 0.48	790.9	–
298.15 K, 2000 kPa, w1 = 0.49	792	–
298.15 K, 2000 kPa, w1 = 0.5	793.1	–
298.15 K, 2000 kPa, w1 = 0.51	794.1	–
298.15 K, 2000 kPa, w1 = 0.52	795.2	–
298.15 K, 2000 kPa, w2 = 0.5	793.1	–
298.15 K, 4000 kPa, w1 = 0.48	792.4	–
298.15 K, 4000 kPa, w1 = 0.49	793.5	–
298.15 K, 4000 kPa, w1 = 0.5	794.5	–
298.15 K, 4000 kPa, w1 = 0.51	795.7	–
298.15 K, 4000 kPa, w1 = 0.52	796.6	–
298.15 K, 4000 kPa, w2 = 0.5	794.5	1.14
298.15 K, 6000 kPa, w1 = 0.48	793.9	–
298.15 K, 6000 kPa, w1 = 0.49	794.9	–
298.15 K, 6000 kPa, w1 = 0.5	795.9	–
298.15 K, 6000 kPa, w1 = 0.51	797	–
298.15 K, 6000 kPa, w1 = 0.52	797.9	–
298.15 K, 6000 kPa, w2 = 0.5	795.9	–
298.15 K, 8000 kPa, w1 = 0.48	795.3	–
298.15 K, 8000 kPa, w1 = 0.49	796.3	–
298.15 K, 8000 kPa, w1 = 0.5	797.3	–
298.15 K, 8000 kPa, w1 = 0.51	798.4	–
298.15 K, 8000 kPa, w1 = 0.52	799.3	–
298.15 K, 8000 kPa, w2 = 0.5	797.3	–
298.15 K, 10000 kPa, w1 = 0.48	796.6	–
298.15 K, 10000 kPa, w1 = 0.49	797.4	–
298.15 K, 10000 kPa, w1 = 0.5	798.6	–
298.15 K, 10000 kPa, w1 = 0.51	799.7	–
298.15 K, 10000 kPa, w1 = 0.52	800.6	–
298.15 K, 10000 kPa, w2 = 0.5	798.6	1.22
298.15 K, 12000 kPa, w1 = 0.48	797.9	–
298.15 K, 12000 kPa, w1 = 0.49	798.7	–
298.15 K, 12000 kPa, w1 = 0.5	799.9	–
298.15 K, 12000 kPa, w1 = 0.51	801	–
298.15 K, 12000 kPa, w1 = 0.52	801.9	–
298.15 K, 12000 kPa, w2 = 0.5	799.9	–
298.15 K, 14000 kPa, w1 = 0.48	799.2	–
298.15 K, 14000 kPa, w1 = 0.49	800.1	–
298.15 K, 14000 kPa, w1 = 0.5	801.3	–
298.15 K, 14000 kPa, w1 = 0.51	802.3	–
298.15 K, 14000 kPa, w1 = 0.52	803.2	–
298.15 K, 14000 kPa, w2 = 0.5	801.3	–
298.15 K, 16000 kPa, w1 = 0.48	800.5	–
298.15 K, 16000 kPa, w1 = 0.49	801.3	–
298.15 K, 16000 kPa, w1 = 0.5	802.6	–
298.15 K, 16000 kPa, w1 = 0.51	803.5	–
298.15 K, 16000 kPa, w1 = 0.52	804.5	–
298.15 K, 16000 kPa, w2 = 0.5	802.6	–
298.15 K, 18000 kPa, w1 = 0.48	801.7	–
298.15 K, 18000 kPa, w1 = 0.49	802.6	–
298.15 K, 18000 kPa, w1 = 0.5	803.8	–
298.15 K, 18000 kPa, w1 = 0.51	804.7	–
298.15 K, 18000 kPa, w1 = 0.52	805.7	–
298.15 K, 18000 kPa, w2 = 0.5	803.8	–
298.15 K, 20000 kPa, w1 = 0.48	803.1	–
298.15 K, 20000 kPa, w1 = 0.49	803.9	–
298.15 K, 20000 kPa, w1 = 0.5	805.1	–
298.15 K, 20000 kPa, w1 = 0.51	806	–
298.15 K, 20000 kPa, w1 = 0.52	807	–
298.15 K, 20000 kPa, w2 = 0.5	805.1	–
300.65 K, 100 kPa, w2 = 0.5	789.9	–
300.65 K, 2000 kPa, w2 = 0.5	791.2	–
300.65 K, 4000 kPa, w2 = 0.5	792.6	–
300.65 K, 6000 kPa, w2 = 0.5	794	–
300.65 K, 8000 kPa, w2 = 0.5	795.4	–
300.65 K, 10000 kPa, w2 = 0.5	796.8	–
300.65 K, 12000 kPa, w2 = 0.5	798.1	–
300.65 K, 14000 kPa, w2 = 0.5	799.4	–
300.65 K, 16000 kPa, w2 = 0.5	800.7	–
300.65 K, 18000 kPa, w2 = 0.5	802	–
300.65 K, 20000 kPa, w2 = 0.5	803.3	–
303.15 K, 100 kPa, w2 = 0.5	788.1	–
303.15 K, 2000 kPa, w2 = 0.5	789.6	–
303.15 K, 4000 kPa, w2 = 0.5	791.1	–
303.15 K, 6000 kPa, w2 = 0.5	792.5	–
303.15 K, 8000 kPa, w2 = 0.5	794	–
303.15 K, 10000 kPa, w2 = 0.5	795.4	–
303.15 K, 12000 kPa, w2 = 0.5	796.7	–
303.15 K, 14000 kPa, w2 = 0.5	798.1	–
303.15 K, 16000 kPa, w2 = 0.5	799.4	–
303.15 K, 18000 kPa, w2 = 0.5	800.8	–
303.15 K, 20000 kPa, w2 = 0.5	802	–
